Experimental data: patent publication US20240294551A1 (AMGEN INC., priority 2022, published 2024)
Structures can show the parent of a compound that is named as a salt. Where two headings read alike, the source gives them in different places.

Experiments:
[1] = system: Phosphorylation of ERK1/2 in AsPC-1 cells; experiment: Phospho-ERK1/2 MSD Assay; assay type: cell-based, human; conditions: Homo sapiens, ASPC1, 2 h
Procedure, shortened: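 Read-out: MSD electrochemiluminescent detection of phosphorylated ERK1/2 in whole-cell lysates, fitted to a 4-parameter logistic curve for IC50. Prior to lysis, AsPC-1 cells (25,000 per well) received a 2 h compound dose-response at 37 °C.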

[2] = system: SW620 cells; experiment: SW620 CTG Assay (CellTiter-Glo cell viability); assay type: cell-based, human; conditions: Homo sapiens, SW-620; SW620, 72 h; third value of the cell; read-out: G12D/C/V Cell Proliferation CTG (72 h) SW620
Method: AsPC-1 and SW620 CTG Assay Protocols
AsPC-1 (human pancreatic adenocarcinoma; ATCC CRL-1682) or SW620 (human colon adenocarcinoma; ATCC CCL-227) cells were cultured in RPMI 1640 medium containing 10% fetal bovine serum and 1× penicillin/streptomycin/L-glutamine. Cells were seeded in 384-well plates at a density of 3.33E+04 cells/mL and incubated at 37° C., 5% CO2, overnight. Serially-diluted compound or DMSO was added to the cells, and plates were incubated at 37° C., 5% CO2 for 72 h. Cell viability was measured using a CellTiter-Glo® Luminescent Cell Viability Assay kit (Promega) according to the manufacturer's protocol. The luminescence signal of treated samples was normalized to DMSO control, and data were analyzed using a 4-parameter logistic model to calculate IC50 values.

[3] = biological target: His-tagged KRAS G12D protein (Homo sapiens (Human), UniProt P01116, G12D); experiment: KRAS G12D TR-FRET Assay; assay type: binding
Procedure, shortened: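 His-tagged KRAS G12D (diluted to 20 nM in pH 7.4 HEPES buffer with 10 mM MgCl2 and 10 μM GDP) was preincubated with titrated compound for 30 min at room temperature. Biotinylated KRPep-2d peptide (diluted to 20 nM) was then added for 1 h, and displacement was monitored by TR-FRET.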

[4] = biological target: GDP-bound KRAS protein (aa 1-169), containing both G12D and C118A amino acid substitutions (Homo sapiens (Human), UniProt P01116, C118A/G12D); experiment: KRAS G12D Coupled Nucleotide Exchange Assay; assay type: biochemical
[5] = system: AsPC-1 cells; experiment: AsPC-1 CTG Assay (CellTiter-Glo cell viability); assay type: cell-based, human; conditions: Homo sapiens, ASPC1, 72 h, first value of the cell, read-out: G12D/C/V Cell Proliferation CTG (72 h) AsPC-1
Procedure, shortened: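 Human pancreatic AsPC-1 or colon SW620 cells in RPMI 1640 with 10% FBS, seeded overnight, then exposed to serially diluted compound for 72 h at 37 °C. CellTiter-Glo luminescence normalized to DMSO control; IC50 from a 4-parameter logistic model.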

[6] = system: MIA PaCa-2 cells; experiment: MIA PaCa-2 CTG Assay (CellTiter-Glo cell viability); assay type: cell-based, human; conditions: Homo sapiens, second value of the cell
Procedure, shortened: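 Human pancreatic carcinoma cells in RPMI 1640 with 10% FBS, seeded at 1.67E+04 cells/mL and left overnight, were treated with serially diluted compound for 72 h at 37° C, 5% CO2. Viability was read by CellTiter-Glo luminescence normalized to DMSO; IC50 came from a 4-parameter logistic fit.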

[7] = read-out: 2 h p-ERK (AsPC-1 cells), IC50
[8] = read-out: KRAS G12D Binding IC50
[9] = read-out: KRAS G12D Coupled Exchange IC50
[10] = Mia PaCa-2, 72 h, read-out: G12D/C/V Cell Proliferation CTG (72 h) Mia PaCa-2
[11] = read-out: 2 h p-ERK (AsPC-1 cells)
[12] = MIA PaCa-2 cells (G12C), 72 h, read-out: G12D/C/V Cell Proliferation CTG (72 h) MIA PaCa-2
[13] = TR-FRET, read-out: KRAS G12D Binding
[14] = 2 hours compound pre-incubation, read-out: KRAS G12D Coupled Exchange

GDP-bound KRAS protein (aa 1-169), containing both G12D and C118A amino acid substitutions, sequence (P01116 other isoform, or with tags, fused parts or gaps G12D/C118A): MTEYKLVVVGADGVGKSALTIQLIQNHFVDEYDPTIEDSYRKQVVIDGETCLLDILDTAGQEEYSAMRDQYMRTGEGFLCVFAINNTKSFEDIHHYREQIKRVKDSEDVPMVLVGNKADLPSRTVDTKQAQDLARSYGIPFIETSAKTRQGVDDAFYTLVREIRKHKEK
His-tagged KRAS G12D protein, sequence (P01116 other isoform, or with tags, fused parts or gaps G12D): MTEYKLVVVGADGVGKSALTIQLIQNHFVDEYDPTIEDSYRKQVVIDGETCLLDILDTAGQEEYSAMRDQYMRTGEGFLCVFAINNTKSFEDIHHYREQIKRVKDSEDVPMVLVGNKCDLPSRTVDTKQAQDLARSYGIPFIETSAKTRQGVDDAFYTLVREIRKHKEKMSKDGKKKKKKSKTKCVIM

| Compound | IC50 [1, 7] [nM] | IC50 [2] [nM] | IC50 [3, 8] [nM] | IC50 [4, 9] [nM] | IC50 ([5]; AsPC-1, 72 h) [nM] | IC50 [6, 10] [nM] | IC50 [1, 11] [nM] | IC50 [6, 12] [nM] | IC50 ([5]; AsPC-1 cells (G12D), 72 h) [nM] | IC50 [3, 13] [nM] | IC50 [4, 14] [nM] |
| --- | --- | --- | --- | --- | --- | --- | --- | --- | --- | --- | --- |
| Cc1cc2[nH]ncc2c2c1CCCOC(=O)O[C@@H]1COCCN(C1)c1nc(OC[C@@]34CCCN3C[C@H](F)C4)nc3c(F)c-2c(F)cc13 [Example 102, (26S)-9,32-difluoro-4-(((2R,7aS)-2-fluorotetrahydro-1H-pyrrolo[1,2-a]pyrrol-7a(5H)-yl)methoxy)-18-methyl-23,25,28-trioxa-1,3,5,14,15-pentaazahexacyclo[24.4.1.1~6,10~.0~2,7~.0~11,19~.0~12,16~]dotriaconta-2,4,6,8,10(32),11,13,16,18-nonaen-24-one] | 10 | 22.6 | – | – | 90 | – | – | – | – | – | – |
| O=C1OCC[C@@H]2CCc3cc4[nH]ncc4c(c32)-c2ncc3c(nc(OC[C@@]45CCCN4C[C@H](F)C5)nc3c2F)N2CCOC[C@H](C2)O1 [Example 367, (16S,22S)-34-fluoro-8-(((2R,7aS)-2-fluorotetrahydro-1H-pyrrolo[1,2-a]pyrrol-7a(5H)-yl)methoxy)-14,17,19-trioxa-3,7,9,11,28,29-hexaazaheptacyclo[20.9.1.1~2,6~.1~11,16~.0~5,10~.0~25,32~.0~27,31~]tetratriaconta-1(31),2(34),3,5,7,9,25(32),26,29-nonaen-18-one] | 9.2 | – | 4 | 2 | 139 | 26 | – | – | – | – | – |
| Cc1cc2[nH]ncc2c2c1CCc1cnc(o1)[C@@H](O)[C@@H]1CCCN(C1)c1nc(OC[C@@]34CCCN3C[C@H](F)C4)nc3c(F)c-2ncc13 [Example 373] | – | – | – | – | – | – | 7 | 5 | 21 | 7 | 3 |
| Fc1c2ncc3c(nc(OC[C@@]45CCCN4C[C@H](F)C5)nc13)N1CCC[C@@H](Cc3nnc(o3)CCc3c(Cl)cc4[nH]ncc4c3-2)C1 [Example 391, (18S)-9-chloro-31-fluoro-25-(((2R,7aS)-2-fluorotetrahydro-1H-pyrrolo[1,2-a]pyrrol-7a(5H)-yl)methoxy)-33-oxa-5,6,14,15,22,24,26,30-octaazaheptacyclo[25.3.1.1~13,16~.1~18,22~.0~2,10~.0~3,7~.0~23,28~]tritriaconta-1(31),2,4,7,9,13,15,23,25,27,29-undecaene] | – | – | – | – | – | – | 36.3 | 183 | 265 | 4 | 2 |
| CN1CCC[C@H]1COc1nc2c3cnc(c(F)c3n1)-c1c(c(Cl)cc3[nH]ncc13)CCc1cnc(o1)[C@@H](O)[C@@H]1CCCN2C1 [Example 394, (17S,18R)-9-chloro-31-fluoro-25-(((2S)-1-methylpyrrolidin-2-yl)methoxy)-33-oxa-5,6,15,22,24,26,30-heptaazaheptacyclo[25.3.1.1~13,16~.1~18,22~.0~2,10~.0~3,7~.0~23,28~]tritriaconta-1(31),2,4,7,9,13,15,23,25,27,29-undecaen-17-ol] | – | – | – | – | – | – | 3 | 10 | 58 | 5 | 2 |
| O[C@]12CCOCCc3c(Cl)cc4[nH]ncc4c3-c3ncc4c(nc(OC[C@@]56CCCN5C[C@H](F)C6)nc4c3F)N3CCC[C@@](C3)(C1)C2 [Example 397, (1S,3R)-10-chloro-32-fluoro-24-(((2R,7aS)-2-fluorotetrahydro-1H-pyrrolo[1,2-a]pyrrol-7a(5H)-yl)methoxy)-6-oxa-13,14,19,23,25,27-hexaazaheptacyclo[25.3.1.1~1,3~.1~18,22~.0~9,17~.0~12,16~.0~21,26~]tritriaconta-9,11,14,16,18(32),19,21,23,25-nonaen-3-ol] | – | – | – | – | – | – | 1.4 | 3 | 12 | 4 | 2 |

The next lines start with the values.

| IC50 [1, 7] [nM] | IC50 [2] [nM] | IC50 [3, 8] [nM] | IC50 [4, 9] [nM] | IC50 ([5]; AsPC-1, 72 h) [nM] | IC50 [6, 10] [nM] | IC50 [1, 11] [nM] | IC50 [6, 12] [nM] | IC50 ([5]; AsPC-1 cells (G12D), 72 h) [nM] | IC50 [3, 13] [nM] | IC50 [4, 14] [nM] | Compound |
| --- | --- | --- | --- | --- | --- | --- | --- | --- | --- | --- | --- |
| 60 | 579 | 8 | 6 | – | – | – | – | – | – | – | C[C@@]12CCCN(C1)c1nc(OC[C@@]34CCCN3C[C@H](F)C4)nc3c(F)c(ncc13)-c1cc(O)cc3cccc(c13)CCCCC(=O)N2 [Example 8, (15R)-32-Fluoro-8-(((2R,7aS)-2-fluorotetrahydro-1H-pyrrolo[1,2-a]pyrrol-7a(5H)-yl)methoxy)-28-hydroxy-15-methyl-3,7,9,11,16-pentaazahexacyclo[20.7.1.1˜2,6˜.1˜11,15˜.0˜5,10˜.0˜26,30˜]dotriaconta-1(29),2(32),3,5,7,9,22,24,26(30),27-decaen-17-one (2,2,2-trifluoroacetate) salt] |
| 0.4 | – | 3 | 1 | 7 | 5 | – | – | – | – | – | O=C1OCCc2c(F)ccc3cc(O)cc(c23)-c2ncc3c(nc(OC[C@@]45CCCN4C[C@H](F)C5)nc3c2F)N2CCOC[C@H](C2)O1 [Example 361, (16S)-23,32-difluoro-8-(((2R,7aS)-2-fluorotetrahydro-1H-pyrrolo[1,2-a]pyrrol-7a(5H)-yl)methoxy)-28-hydroxy-14,17,19-trioxa-3,7,9,11-tetraazahexacyclo[20.7.1.1~2,6~.1~11,16~.0~5,10~.0~26,30~]dotriaconta-1(30),2(32),3,5,7,9,22,24,26,28-decaen-18-one] |
| 6.7 | – | 3 | 1 | 141 | 11 | – | – | – | – | – | C[C@@]12COCCN(C1)c1nc(OC[C@@]34CCCN3C[C@H](F)C4)nc3c(F)c(ncc13)-c1c3c(cc4[nH]ncc14)CC[C@H]3CCOC(=O)O2 [Example 365, (16S,22S)-34-fluoro-8-(((2R,7aS)-2-fluorotetrahydro-1H-pyrrolo[1,2-a]pyrrol-7a(5H)-yl)methoxy)-16-methyl-14,17,19-trioxa-3,7,9,11,28,29-hexaazaheptacyclo[20.9.1.1~2,6~.1~11,16~.0~5,10~.0~25,32~.0~27,31~]tetratriaconta-1(31),2(34),3,5,7,9,25(32),26,29-nonaen-18-one] |
| – | – | – | – | – | – | 4.4 | 20 | 17 | 3 | 2 | O=C1CCCCc2c(Cl)cc3[nH]ncc3c2-c2ncc3c(nc(OC[C@@]45CCCN4C[C@H](F)C5)nc3c2F)N2CCC[C@@H](C1)C2 [Example 372] |
| – | – | – | – | – | – | 26.8 | 170 | 35 | 4 | 2 | Fc1c2ncc3c(nc(OC[C@@]45CCCN4C[C@H](F)C5)nc13)N1CCCC[C@](F)(COCCCCc3c(Cl)cc4[nH]ncc4c3-2)C1 [Example 398, (26R)-18-chloro-26,32-difluoro-4-(((2R,7aS)-2-fluorotetrahydro-1H-pyrrolo[1,2-a]pyrrol-7a(5H)-yl)methoxy)-24-oxa-1,3,5,9,14,15-hexaazahexacyclo[24.4.1.1~6,10~.0~2,7~.0~11,19~.0~12,16~]dotriaconta-2,4,6,8,10(32),11,13,16,18-nonaene] |
| – | – | – | – | – | – | 25.9 | 105 | 44 | 4 | 2 | Fc1c2ncc3c(nc(OC[C@@]45CCCN4C[C@H](F)C5)nc13)N1CCCC[C@@](F)(COCCCCc3c(Cl)cc4[nH]ncc4c3-2)C1 [Example 399, (26S)-18-chloro-26,32-difluoro-4-(((2R,7aS)-2-fluorotetrahydro-1H-pyrrolo[1,2-a]pyrrol-7a(5H)-yl)methoxy)-24-oxa-1,3,5,9,14,15-hexaazahexacyclo[24.4.1.1~6,10~.0~2,7~.0~11,19~.0~12,16~]dotriaconta-2,4,6,8,10(32),11,13,16,18-nonaene] |
